Values quoted from earlier work as cited in patent US8383645B2 (Teva Pharmaceutical Industries, Ltd., priority 2006, dated 2013).

System: acute experimental autoimmune encephalomyelitis (aEAE) model
Conditions: U.S. Pat. No. 6,077,851

For `CCN(C(=O)c1c(O)c2c(Cl)cccc2n(C)c1=O)c1ccccc1` [Laquinimod, N-ethyl-N-phenyl-1,2-dihydro-4-hydroxy-5-chloro-1-methyl-2-oxoquinoline-3-carboxamide], the “effectiveness in the aEAE model” value is given as “effective”.
